From patent publication US8258154B2, “Bicyclic heteroaryl inhibitors of PDE4” (Kalypsys Inc., priority 2006, dated 2012)

Tested on: Lacrimal gland inflammation-induced dry eye
Assay: Lacrimal gland inflammation-induced dry eye in rabbits (corneal staining, tear breakup time)
Format: in vivo
Conditions: rabbit, topical ocular BID, percent concentration 1
Description: A more detailed description of the assay used herein may be found in Naglehout, T J et al. 2005, “Preservation of Tear Film Integrity and Inhibition of Corneal Injury by Dexamethasone in a Rabbit Model of Lacrimal Gland Inflammation-Induced Dry Eye,” J. Ocular Pharm. Ther., 21:2. 139-148, the disclosure of which is hereby incorporated by reference as if written herein in its entirety. Rabbits (n=4/group) were randomized into treatment groups and dosed topically BID with maxidex vehicle or test drug beginning one day prior to initiation of dry eye. Each rabbit received bilateral lacrimal gland injections of saline or ConA (300 μg/30 μl) and topical ocular dosing was continued BID throughout the study. Desiccation was initiated 1-2 hours following lacrimal gland injection by placing conscious rabbits in the environmental chamber (10-15% humidity/72° F.). […] Absorbance of the extracted dye was determined at 660 nm. TBUT was quantified in a separate group of treated animals. TBUT was determined by instilling 5 μL sodium fluorescein into the cul de sac and manually blinking the lids to distribute the fluorescein within the tear film. Under slit lamp observation, the eye was held open and the time whereby one or more black spots or streaks appeared in the precorneal tear film was recorded. […]

COc1ccc2c(Nc3c(Cl)cncc3Cl)cc(=O)[nH]c2c1OC1CCCC1 [Example 1, 8-(Cyclopentyloxy)-4-(3,5-dichloropyridin-4-ylamino)-7-methoxyquinolin-2(1H)-one]
Activity at Percent Concentration Tested 1: Inac-
